Consider 19 molecules from patent publication US8999956B2, “N-[(het)arylalkyl)] pyrazole(thio)carboxamides and their heterosubstituted analogues” (Bayer Intellectual Property GmbH, priority 2010, dated 2015).

Where two headings read alike, the source gives them in different places.

Data set [1] is described as follows: log P by HPLC on reversed-phase column (EEC Directive 79/831 Annex V.A8). Format: physicochemical. Here is the method: In table 1, the log P values were determined in accordance with EEC Directive 79/831 Annex V.A8 by HPLC (High Performance Liquid Chromatography) on a reversed-phase column (C18), using the method described below: Temperature: 40° C.; […]
For another data set, the system named is Puccinia triticina. Description: In vivo preventive test on Puccinia triticina (wheat). The following applies: Table K, 500 ppm of active ingredient, evaluated 8 days after inoculation.
For a further data set, the system named is Leptosphaeria nodorum. Put plainly: In vivo preventive test on Leptosphaeria nodorum (wheat). The following applies: 500 ppm of active ingredient, evaluated 7-9 days after inoculation. On the procedure: Solvent: 49 parts by weight of N,N-dimethylacetamide Emulsifier: 1 part by weight of alkylaryl polyglycol ether To produce a suitable preparation of active compound, 1 part by weight of active compound is mixed with the stated amounts of solvent and emulsifier, and the concentrate is diluted with water to the desired concentration. To test for preventive activity, young plants are sprayed with a preparation of active compound at the stated rate of application. One day after this treatment, the plants are inoculated with an aqueous spore suspension of Leptosphaeria nodorum.

The subject of a further data set is Pyrenophora teres. Description: In vivo preventive test on Pyrenophora teres (barley). The following applies: 500 ppm of active ingredient, evaluated 7-9 days after inoculation. Put shortly: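 Compound formulated in N,N-dimethylformamide with alkylaryl polyglycol ether emulsifier and diluted in water, then sprayed on young barley plants at the stated application rate. Plants inoculated one day later with aqueous Pyrenophora teres spore suspension, testing preventive protection.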

The next data set concerns Alternaria solani. Put plainly: In vivo preventive test on Alternaria solani (tomato). The following applies: 500 ppm of active ingredient, evaluated 7 days after inoculation. Put shortly: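 Young tomato plants sprayed preventively with compound in DMF/alkylarylpolyglycolether emulsion diluted in water to the stated rate. Inoculation with aqueous Alternaria solani spore suspension one day after treatment.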

Data set [2] relates to aflatoxines produced by Aspergillus parasiticus. Put plainly: microbe, parasite or virus in culture. Type of data set: cell-based.
A further data set has as its system Sphaerotheca fuliginea. Description: In vivo preventive test on Sphaerotheca fuliginea (cucumber). The following applies: 500 ppm of active ingredient, evaluated 7 days after inoculation. Here is the method: Solvent: 49 parts by weight of N,N-dimethylformamide Emulsifier: 1 part by weight of Alkylarylpolyglycolether To produce a suitable preparation of active compound, 1 part by weight of active compound is mixed with the stated amounts of solvent and emulsifier, and the concentrate is diluted with water to the desired concentration. To test for preventive activity, young plants are sprayed with the preparation of active compound at the stated rate of application. One day after this treatment, the plants are inoculated with an aqueous spore suspension of Sphaerotheca fuliginea. Then the plants are placed in a greenhouse at approximately 23° C. and a relative atmospheric humidity of approximately 70%.

In another data set the test system is Aspergillus parasiticus. Put plainly: microbe, parasite or virus in culture. Type of data set: cell-based.
The next data set relates to Septoria tritici. Description: In vivo preventive test on Septoria tritici (wheat). The following applies: 500 ppm of active ingredient, evaluated 21 days after inoculation. On the procedure:
Solvent: 49 parts by weight of N,N-dimethylacetamide Emulsifier: 1 part by weight of alkylaryl polyglycol ether To produce a suitable preparation of active compound, 1 part by weight of active compound or active compound combination is mixed with the stated amounts of solvent and emulsifier, and the concentrate is diluted with water to the desired concentration. To test for preventive activity, young plants are sprayed with the preparation of active compound or active compound combination at the stated rate of application. After the spray coating has been dried, the plants are sprayed with a spore suspension of Septoria tritici.

The next data set has as its system Venturia inaequalis. Put plainly: In vivo preventive test on Venturia inaequalis (apple scab). The following applies: 100 ppm of active ingredient, evaluated 10 days after inoculation. On the procedure:
Solvent: 24.5 parts by weight of acetone • 24.5 parts by weight of N,N-dimethylacetamide Emulsifier: 1 part by weight of alkylaryl polyglycol ether To produce a suitable preparation of active compound, 1 part by weight of active compound is mixed with the stated amounts of solvent and emulsifier, and the concentrate is diluted with water to the desired concentration. To test for preventive activity, young plants are sprayed with the preparation of active compound at the stated rate of application.

Another data set deals with Botrytis cinerea. Put plainly: In vivo preventive test on Botrytis cinerea (beans). On the procedure: Solvent: 24.5 parts by weight of acetone • 24.5 parts by weight of N,N-dimethylacetamide
Emulsifier: 1 part by weight of alkylaryl polyglycol ether
To produce a suitable preparation of active compound, 1 part by weight of active compound is mixed with the stated amounts of solvent and emulsifier, and the concentrate is diluted with water to the desired concentration.
To test for preventive activity, young plants are sprayed with the preparation of active compound. After the spray coating has dried on, 2 small pieces of agar covered with growth of Botrytis cinerea are placed on each leaf. The inoculated plants are placed in a darkened chamber at 20° C. and a relative atmospheric humidity of 100%.
2 days after the inoculation, the size of the lesions on the leaves is evaluated. 0% means an efficacy which corresponds to that of the untreated control, while an efficacy of 100% means that no disease is observed.

The mark [3] stands for this setting: Table L, 500 ppm of active ingredient, lesion size 2 days after inoculation.
Where [4] appears, read: Table L2, dose 500 ppm, comparison with des-fluoro analogues.

The molecule `CC(CCc1ccc(Cl)c(Cl)c1)N(C(=O)c1c(C(F)F)nn(C)c1Cl)C1CC1` (racemic) [Example 130] yielded a logP in data set [1] of 4.62. Besides, the Efficacy in the data set with Puccinia triticina was 70%; in the data set on Leptosphaeria nodorum, 90%; in the data set with Pyrenophora teres it was 95%; in the data set with Alternaria solani, 95%.
Consider `CC(C)CC(C)C1CCCC1NC(=O)c1c(C(F)F)nn(C)c1F` (single isomer, unassigned) [Example 318], for which the logP in data set [1] came to 4.27 isomer C. Moreover, the Efficacy was found to be 70% in the data set with Leptosphaeria nodorum, 100% in the data set with Pyrenophora teres, 90% with Alternaria solani and 93% with Sphaerotheca fuliginea. For the same molecule, the “% Inhibition of Aflatoxin at 50 μM” value in data set [2] worked out at 100%. In addition, in the data set with Aspergillus parasiticus (50 µM), the “% Inhibition of fungal growth at 50 μM” value is 89%.
Turning to `CC(CC(C)(C)C)C1CCCCC1NC(=O)c1c(C(F)F)nn(C)c1F` (single isomer, unassigned) [Example 361], in data set [1], the logP was 4.89 isomer B. Moreover, the Efficacy with Puccinia triticina turned out to be 90%; in the data set on Septoria tritici, 100%; with Pyrenophora teres, 95%; in the data set with Venturia inaequalis it was 88%; in the data set on Alternaria solani, 95%; in the data set on Sphaerotheca fuliginea, 91%. The “% Inhibition of Aflatoxin at 50 μM” value in [2] was determined as 100%. In addition, the “% Inhibition of fungal growth at 50 μM” value with Aspergillus parasiticus (50 µM) stood at 84%.
As to `CC(N(C(=O)c1c(C(F)F)nn(C)c1Cl)C1CC1)C(C)(C)Cc1ccccc1` (stereo not shown) [Example 10], in [1], the logP is 4.27. For the same molecule, the values for the Efficacy in the data set on Botrytis cinerea (setting [3]), with Pyrenophora teres and in the data set with Alternaria solani were 85%, 95% and 90%, respectively.
`CC(CCc1c(Cl)cc(Cl)cc1Cl)N(C(=S)c1c(C(F)F)nn(C)c1F)C1CC1` (stereo not shown) [Example 219] registered a logP in data set [1] of 5.81. Besides, the Efficacy with Leptosphaeria nodorum worked out at 90%; with Pyrenophora teres it was 100%; with Alternaria solani, 95%; in the data set on Sphaerotheca fuliginea it was 100%. The “% Inhibition of Aflatoxin at 50 μM” value in data set [2] stood at 81%. The “% Inhibition of fungal growth at 50 μM” value in the data set on Aspergillus parasiticus is 71%.
With `Cn1nc(C(F)F)c(C(=O)NC2CCCCC2Oc2ccccc2)c1F` (stereo not shown) [Example 245], the logP in data set [1] is reported as 3.52. The Efficacy with Puccinia triticina is reported as 70%; in the data set on Leptosphaeria nodorum it was 90%; with Pyrenophora teres, 78%; in the data set on Alternaria solani it was 90%.
In data set [1], `Cn1nc(C(F)F)c(C(=O)N(C2CC2)C2CCCCC2Oc2ccccc2)c1F` (stereo not shown) [Example 247] gave a logP of 4.21. Moreover, the Efficacy in the data set with Puccinia triticina is recorded as 100%; in the data set with Leptosphaeria nodorum, 95%; in the data set on Pyrenophora teres it was 100%; in the data set on Sphaerotheca fuliginea, 100%. The “% Inhibition of Aflatoxin at 50 μM” value in data set [2] (50 µM) was 93%. The “% Inhibition of fungal growth at 50 μM” value with Aspergillus parasiticus (50 µM) turned out to be 78%.
On to `Cn1nc(C(F)F)c(C(=O)N(C[Si](C)(C)Cc2cccc(Cl)c2)C2CC2)c1Cl` [Example 290], for which, in data set [1], the logP came to 4.59. In addition, the Efficacy with Leptosphaeria nodorum was determined as 80%; in the data set with Pyrenophora teres it was 100%; in the data set with Alternaria solani, 95%. Besides, the “% Inhibition of Aflatoxin at 50 μM” value in data set [2] is 82%. Further, the “% Inhibition of fungal growth at 50 μM” value with Aspergillus parasiticus amounted to 72%.
In the case of `Cn1nc(C(F)F)c(C(=O)N(C[Si](C)(C)Cc2cc(Cl)cc(Cl)c2)C2CC2)c1F` [Example 293], the logP in data set [1] was 4.98. Besides, the Efficacy in the data set with Leptosphaeria nodorum is 94%. Moreover, the “% Inhibition of Aflatoxin at 50 μM” value in [2] was 100%. Further, the “% Inhibition of fungal growth at 50 μM” value in the data set with Aspergillus parasiticus is given as 100%.
In turn, `Cn1nc(C(F)F)c(C(=O)N(C[Si](C)(C)Cc2ccccc2Cl)C2CC2)c1Cl` [Example 294] returned a logP in data set [1] of 4.56. The figures for the Efficacy in the data set with Leptosphaeria nodorum, in the data set on Pyrenophora teres and in the data set on Alternaria solani were 70%, 95% and 95%, respectively. Besides, in data set [2], the “% Inhibition of Aflatoxin at 50 μM” value was 100%. Also, the “% Inhibition of fungal growth at 50 μM” value in the data set with Aspergillus parasiticus was determined as 84%.
With `Cn1nc(C(F)F)c(C(=O)N(C[Si](C)(C)Cc2ccccc2Cl)C2CC2)c1F` [Example 295], the logP in data set [1] stood at 4.41. Besides, the Efficacy with Leptosphaeria nodorum, in the data set with Pyrenophora teres and in the data set with Alternaria solani was 100% throughout. For the same molecule, the “% Inhibition of Aflatoxin at 50 μM” value in data set [2] turned out to be 100%. Moreover, in the data set with Aspergillus parasiticus, the “% Inhibition of fungal growth at 50 μM” value worked out at 100%.
In data set [1], `Cn1nc(C(F)F)c(C(=S)N(C[Si](C)(C)Cc2ccccc2Cl)C2CC2)c1F` [Example 296] registered a logP of 5.00. Also, the Efficacy in the data set with Leptosphaeria nodorum amounted to 95%; in the data set with Pyrenophora teres it was 100%; in the data set on Alternaria solani, 80%; in the data set with Sphaerotheca fuliginea, 70%.
Molecule `Cn1nc(C(F)F)c(C(=O)N(C[Si](C)(C)Cc2ccc(Cl)cc2Cl)C2CC2)c1F` [Example 298] returned a logP in [1] of 5.03. The Efficacy is recorded as 95% in the data set on Leptosphaeria nodorum, 100% with Pyrenophora teres, 100% in the data set with Alternaria solani and 85% in the data set on Sphaerotheca fuliginea. In addition, the “% Inhibition of Aflatoxin at 50 μM” value in data set [2] was 100%. Further, in the data set on Aspergillus parasiticus, the “% Inhibition of fungal growth at 50 μM” value is 100%.
The molecule `CC1CC(N(C(=O)c2c(C(F)F)nn(C)c2F)C2CC2)CC(C)(C)C1` (stereo not shown) [Example 322] displayed a logP in [1] of 4.31. Moreover, the Efficacy with Puccinia triticina came to 95%; in the data set with Leptosphaeria nodorum it was 90%; with Pyrenophora teres, 100%; in the data set with Alternaria solani, 90%; in the data set with Sphaerotheca fuliginea, 90%. Moreover, the “% Inhibition of Aflatoxin at 50 μM” value in data set [2] is recorded as 100%. In addition, the “% Inhibition of fungal growth at 50 μM” value in the data set on Aspergillus parasiticus is listed as 99%.
Regarding `CC(CC1CCCCC1NC(=O)c1c(C(F)F)nn(C)c1Cl)C1CC1` (stereo not shown) [Example 328], in data set [1], the logP came to 4.28. Also, the Efficacy in the data set with Leptosphaeria nodorum is 80%; in the data set with Pyrenophora teres, 95%; in the data set on Alternaria solani, 95%; in the data set with Sphaerotheca fuliginea, 100%. The “% Inhibition of Aflatoxin at 50 μM” value in data set [2] is listed as 100%. Also, the “% Inhibition of fungal growth at 50 μM” value in the data set with Aspergillus parasiticus is given as 91%.
On to `CCC1(CNC(=O)c2c(C(F)F)nn(C)c2F)CCCCC1` [Example 366], for which the logP in [1] turned out to be 3.55. Besides, the Efficacy in the data set with Botrytis cinerea (setting [3]) is reported as 84%; with Alternaria solani it was 90%.
Consider `Cn1cc(C(=O)N(CC2CCCCC2c2ccccc2)C2CC2)c(C(F)F)n1` (stereo not shown) [compound CMP1, N-cyclopropyl-3-(difluoromethyl)-1-methyl-N-[(2-phenylcyclohexyl)methyl]-1H-pyrazole-4-carboxamide, reference compound], for which the Efficacy with Botrytis cinerea (setting [4]) came to 0%.
The molecule `Cc1nn(C)c(F)c1C(=O)N(CC1CCCCC1c1ccccc1)C1CC1` (stereo not shown) [compound CMP9, N-cyclopropyl-5-fluoro-1,3-dimethyl-N-[(2-phenylcyclohexyl)methyl]-1H-pyrazole-4-carboxamide, reference compound] came in with an Efficacy in the data set on Botrytis cinerea (setting [4]) of 13%.
Regarding `Cc1nn(C)c(F)c1C(=O)N(C1CC1)C1CCCCC1Oc1ccccc1` (stereo not shown) [compound CMP10, N-cyclopropyl-5-fluoro-1,3-dimethyl-N-(2-phenoxycyclohexyl)-1H-pyrazole-4-carboxamide, reference compound], the Efficacy entry in the data set with Botrytis cinerea (500 ppm of active ingredient, lesion size 2 days after inoculation) is “less than 30%”; with Botrytis cinerea (Table L4, dose 500 ppm, comparison with des-fluoro analogue) it was 29%.
